{
  "source": "ChEMBL document CHEMBL4825684",
  "about": "“Design, synthesis and biological evaluation of N-anthraniloyl tryptamine derivatives as pleiotropic molecules for the therapy of malignant glioma” (Eur J Med Chem, 2021)",
  "key": {"U-251 [1]": {"test_system": "U-251", "experiment": "Induction of apoptosis in human U-251 cells assessed as increase in ROS generation at 1 to 4 uM incubated for 48 hrs […] relative to control", "format": "functional, cell-based", "details": "dose 1-4 µM"}, "U-251 [2]": {"test_system": "U-251", "experiment": "Reduction in MMP9 expression in human U-251 cells incubated for 24 hrs by Western blot analysis", "format": "functional, cell-based", "details": "dose 1-4 µM"}, "U-251 [3]": {"test_system": "U-251", "experiment": "Cytotoxicity against human U-251 cells assessed as cell viability at 4 uM measured up to 24 hrs", "format": "functional", "details": "U-251, 24 h, time hrs <=24, read-out: Activity"}, "[4]": {"experiment": "Cmax in Sprague-Dawley rat at 60 mg/kg, ip measured up to 24 hrs by LC-MS analysis", "format": "ADME, organism-based", "set-up": "route intraperitoneal, dose 60 mg/kg, time <=24", "details": "in vivo"}, "C6 [5]": {"test_system": "C6", "experiment": "Antitumor activity against rat C6 cells inoculated orthotopic Sprague-Dawley rat model assessed as inhibition of angiogenesis brain tissue at 50 mg/kg, ip twice a day administered for 13 days of tumor implantation", "format": "functional, organism-based", "details": "time 13.0 day"}, "U-87 MG [6]": {"test_system": "U-87 MG", "experiment": "Antiproliferative activity against human U-87 MG cells assessed as growth inhibition incubated for 72 hrs by CCK-8 assay", "format": "functional, cell-based, U-87MG ATCC"}, "[7]": {"experiment": "Toxicity in rat C6 cells inoculated orthotopic Sprague-Dawley rat model assessed as body weight change at 50 mg/kg, ip twice a day administered for 13 days of tumor implantation", "format": "organism-based", "details": "in vivo, 312 h, time 13 day"}, "C6 [8]": {"test_system": "C6", "experiment": "Antitumor activity against rat C6 cells inoculated orthotopic Sprague-Dawley rat model assessed as increase in rat survival at 50 mg/kg, ip twice a day administered for 25 days (reference value: 16%)", "format": "functional", "details": "time 25 day"}, "U-87 MG [9]": {"test_system": "U-87 MG", "experiment": "Induction of apoptosis in human U-87 MG cells assessed as necrotic cells at 2 uM incubated for 48 hrs by […] double staining based flow cytometry assay (reference value: 0.91%)", "format": "functional, U-87MG ATCC"}, "[10]": {"experiment": "Tmax in Sprague-Dawley rat at 60 mg/kg, ip measured up to 24 hrs by LC-MS analysis", "format": "ADME, organism-based", "details": "in vivo"}, "U-87 MG [11]": {"test_system": "U-87 MG", "experiment": "Cell cycle arrest in human U-87 MG cells assessed as accumulation at G2/M phase at 8 uM incubated for 48 hrs by PI staining based flow cytometry assay (reference value: 8%)", "format": "functional, U-87MG ATCC"}, "U-87 MG [12]": {"test_system": "U-87 MG", "experiment": "Induction of apoptosis in human U-87 MG cells assessed as viable cells at 8 uM incubated for 48 hrs by Annexin VIM double staining based flow cytometry assay (reference value: 97.8%)", "format": "functional, U-87MG ATCC", "details": "read-out: Activity"}, "C6 [13]": {"test_system": "C6", "experiment": "Antitumor activity against rat C6 cells inoculated orthotopic Sprague-Dawley rat model assessed as reduction tumor volume at 50 mg/kg, ip twice a day treated 3 days after tumor cell injection measured for 13 days after tumor implantation", "format": "functional, organism-based", "details": "time 3.0 day"}, "U-251 [14]": {"test_system": "U-251", "experiment": "Induction of apoptosis in human U-251 cells assessed as necrotic cells at 4 uM incubated for 48 hrs by […] double staining based flow cytometry assay (reference value: 1.32%)", "format": "functional"}, "U-251 [15]": {"test_system": "U-251", "experiment": "Antiproliferative activity against human U-251 cells assessed as decrease in proliferation at 4 uM measured after 24 hrs by EdU assay relative to control", "format": "functional, cell-based"}, "U-251 [16]": {"test_system": "U-251", "experiment": "Induction of apoptosis in human U-251 cells assessed as late apoptotic cells at 8 uM incubated for 48 hrs by […] double staining based flow cytometry assay (reference value: 1.39%)", "format": "functional"}},
  "note": "Active and inactive are the calls of the source. The rule behind the calls is not given here.",
  "data": [
    {"smiles": "COc1cc(Nc2ccccc2C(=O)NCCc2c[nH]c3ccccc23)cc(OC)c1OC", "values": [
      {"measurement": "Activity", "setting": "U-251 [1]", "result": "Active"},
      {"measurement": "Activity", "setting": "U-251 [2]", "result": "Dose-Dependent Effect"},
      {"measurement": "viability at 4 µM", "setting": "U-251 [3]", "result": 80, "unit": "%"},
      {"measurement": "Cmax", "setting": "[4]", "result": 1150, "unit": "ng/mL"},
      {"measurement": "Activity", "setting": "C6 [5]", "result": "Active"},
      {"measurement": "IC50", "setting": "U-87 MG [6]", "result": 4.78, "unit": "µM"},
      {"measurement": "Activity", "setting": "[7]", "result": "Non-Toxic"},
      {"measurement": "Activity", "setting": "C6 [8]", "result": 66, "unit": "%"},
      {"measurement": "Activity", "setting": "U-87 MG [9]", "result": 1.23, "unit": "%"},
      {"measurement": "Tmax", "setting": "[10]", "result": 25.2, "unit": "min"},
      {"measurement": "Activity", "setting": "U-87 MG [11]", "result": 68.2, "unit": "%"},
      {"measurement": "viability at 8 µM", "setting": "U-87 MG [12]", "result": 77.7, "unit": "%"},
      {"measurement": "Activity", "setting": "C6 [13]", "result": "Active"},
      {"measurement": "Activity", "setting": "U-251 [14]", "result": 4.78, "unit": "%"},
      {"measurement": "Activity", "setting": "U-251 [15]", "result": "Active"},
      {"measurement": "Activity", "setting": "U-251 [16]", "result": 26.2, "unit": "%"}
    ]}
  ]
}
